Results from patent EP4733388A1, “LACTOBACILLUS RHAMNOSUS STRAIN, VIABLE BACTERIA FORMULATION AND PREPARATION METHOD THEREFOR AND USE THEREOF” (priority 2023, dated 2024).

Experiments:
L. rhamnosus GG strain = assay: Antibiotic susceptibility test, K-B agar method (disc diffusion); type: cell-based, Lactobacillus rhamnosus; details: standard antibiotic disc, 37°C, 48 h; CLSI criteria, breakpoints in mm per antibiotic in c1-c3; further: key: S (susceptible) represents sensitivity; I (intermediate) represents moderate sensitivity; R (resistance) represents drug resistance
Protocol: (§1) The drug susceptibility test was performed using the K-B agar method recommended by the National Committee for Clinical Laboratory Standards (NCCLS), the drug sensitivity test, as follows: • (1) The commercial strain L. rhamnosus GG strain was selected as the control strain. The L. rhamnosus HOM1213 strain and the GG strain were inoculated in MRS liquid medium at an inoculation amount of 3% of the total amount of the medium, cultured at 37°C for 24 hours, and activated continuously for 3 generations for later use. • (2) 1 mL of bacterial solution (1.5 × 10^8 CFU/mL) and 15 mL of MRS solid medium were mixed, and placed in a sterile culture dish, and mixed uniformly. A standard antibiotic susceptibility testing disc was placed after the plate was solidified, and cultured at 37°C for 48 h, and the diameter of the inhibition zone was measured and recorded.
(§2) Table 3. Results of susceptibility test of L. rhamnosus HOM1213 strain on nine antibiotics.

[1] = tested on: L. rhamnosus HOM1213 strain; assay: as above; type: cell-based, Lactobacillus rhamnosus; details: for Susceptibility (class by Diameter of Inhibition Zone), HOM1213 Group: standard antibiotic disc, 37°C, 48 h, CLSI criteria, breakpoints in mm per antibiotic in c1-c3; for Susceptibility of L. rhamnosus HOM1213 strain to the antibiotic, in words: summary of Table 3; on Susceptibility (class by Diameter of Inhibition Zone), HOM1213 Group: key: S (susceptible) represents sensitivity; I (intermediate) represents moderate sensitivity; R (resistance) represents drug resistance
Protocol: as §1, §2

[2] = In vitro antioxidant capacity test: total antioxidant capacity (T-AOC); details: strain suspension 2 × 10^10 CFU/ml; vitamin C 0.05%; mean ± SD
Protocol: (§3) The L. rhamnosus HOM1213 isolated in Example 1 and GG strains were inoculated in an MRS liquid medium at an inoculation amount of 3% of the total amount of the medium, fermented and cultured at 37°C for 24 h, activated continuously for 3 generations. It was centrifuged at 11000 rpm for 10 min, and the bacterial cells were washed with PBS buffer, resuspended and centrifuged, repeated three times. The count of bacteria was adjusted to 2 × 10^10 CFU/ml for later use. Indicators included total antioxidant capacity (T-AOC), superoxide dismutase (SOD), glutathione peroxidase (GSH-Px), glutathione (GSH), hydroxyl radical scavenging test (·OH), and DPPH radical scavenging test. The DPPH free radical scavenging test used a colorimetric method, and its principle was that the free radical scavenger donated an electron to pair with the lone pair electron of the DPPH free radicals, so that its own color changed from purple to yellow. Its absorbance at the wavelength of 517 nm decreased, and the degree of change has a linear relation to the degree of free radical scavenging, that is, the stronger the scavenging ability of the free radical scavenger, the lower the absorbance. Other indicators were determined by using a kit purchased from Nanjing Jiancheng Company, according to operation instructions. […]

[3] = tested on: superoxide dismutase (SOD); assay: In vitro antioxidant capacity test: superoxide dismutase (SOD); details: strain suspension 2 × 10^10 CFU/ml; vitamin C 0.05%; mean ± SD
Protocol: as §3

glutathione (GSH) = assay: In vitro antioxidant capacity test: glutathione (GSH); details: strain suspension 2 × 10^10 CFU/ml; vitamin C 0.05%; mean ± SD
Protocol: as §3

[4] = Hydroxyl radical scavenging test (·OH); details: strain suspension 2 × 10^10 CFU/ml; vitamin C 0.05%; mean ± SD
Protocol: as §3

[5] = DPPH radical scavenging test (colorimetric, 517 nm); details: strain suspension 2 × 10^10 CFU/ml; vitamin C 0.05%; mean ± SD
Protocol: as §3

Row | Molecule | Susceptibility (class by Diameter of Inhibition Zone), GG Group (L. rhamnosus GG strain) | Susceptibility (class by Diameter of Inhibition Zone), HOM1213 Group [1] | Susceptibility of L. rhamnosus HOM1213 strain to the antibiotic, in words [1] | also measured
1 | Gentamicin | R | R | resistant | 
2 | CN(C)[C@@H]1C(O)=C(C(N)=O)C(=O)[C@@]2(O)C(O)=C3C(=O)c4c(O)cccc4[C@@](C)(O)[C@H]3C[C@@H]12 [Tetracycline] | S | S |  | 
3 | CC[C@H]1OC(=O)[C@H](C)[C@@H](O[C@H]2C[C@@](C)(OC)[C@@H](O)[C@H](C)O2)[C@H](C)[C@@H](O[C@@H]2O[C@H](C)C[C@H](N(C)C)[C@H]2O)[C@](C)(O)C[C@@H](C)C(=O)[C@H](C)[C@@H](O)[C@]1(C)O [Erythromycin] | S | S |  | 
4 | CN[C@H](CC(C)C)C(=O)N[C@H]1C(=O)N[C@@H](CC(N)=O)C(=O)N[C@H]2C(=O)N[C@H]3C(=O)N[C@H](C(=O)N[C@H](C(=O)O)c4cc(O)cc(O)c4-c4cc3ccc4O)[C@H](O)c3ccc(c(Cl)c3)Oc3cc2cc(c3O[C@@H]2O[C@H](CO)[C@@H](O)[C@H](O)[C@H]2O[C@H]2C[C@](C)(N)[C@H](O)[C@H](C)O2)Oc2ccc(cc2Cl)[C@H]1O [Vancomycin] | R | R | resistant | 
5 | [H]/N=C(/N)N[C@H]1[C@H](O)[C@@H](O)[C@H](O[C@@H]2O[C@@H](C)[C@](O)(C=O)[C@H]2O[C@@H]2O[C@@H](CO)[C@H](O)[C@@H](O)[C@@H]2NC)[C@@H](N/C(N)=N\[H])[C@@H]1O [Streptomycin] | I | I | moderately resistant | 
6 | O=C(N[C@H](CO)[C@H](O)c1ccc([N+](=O)[O-])cc1)C(Cl)Cl [Chloramphenicol] | S | S |  | 
7 | CCC[C@@H]1C[C@@H](C(=O)N[C@@H]([C@H]2O[C@H](SC)[C@H](O)[C@@H](O)[C@H]2O)[C@H](C)Cl)N(C)C1 [Clindamycin] | S | S |  | 
8 | CC1(C)S[C@@H]2[C@H](NC(=O)[C@H](N)c3ccccc3)C(=O)N2[C@H]1C(=O)O [Ampicillin] | R | R | resistant | 
9 | NC[C@H]1O[C@H](O[C@H]2[C@H](O)[C@@H](O[C@H]3O[C@H](CO)[C@@H](O)[C@H](N)[C@H]3O)[C@H](N)C[C@@H]2N)[C@H](O)[C@@H](O)[C@@H]1O [Kanamycin] | R | R |  | 
10 | O=C1O[C@H]([C@@H](O)CO)C(O)=C1O [Vitamin C] |  |  |  | T-AOC [2]: 16.90±1.42 U/mL; SOD [3]: 18.07±1.08 U/mL; GSH (glutathione (GSH)): 0.33±0.06 mgGSH/L; ·OH Scavenging Rate (%) [4]: 36.70±1.33%; DPPH Scavenging Rate (%) [5]: 96.14±0.08%
